Results taken from US12568972B2, “Pyridazinol compounds and derivatives, preparation methods, herbicidal compositions and applications thereof” (Qingdao Kingagroot Chemical Compound Co., Ltd., priority 2018, dated 2026).

How the values were obtained:
Experiment in all cases: Post-emergence test, weed control effect
Type in all cases: in vivo
Conditions in all cases: after 3 weeks
Amaranthus retroflexus = system: Amaranthus retroflexus
How it was run: (§1)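 Activity is expressed as a level from 0 (no effect) to 10 (plant dead), each step matching a further 10% fresh-weight inhibition, assessed 3 weeks post-treatment. Treatment: spray at 2-3 leaf stage of pot-grown plants, compound in acetone, Tween-80 and water with 80% vegetable oil methyl ester synergist at 1500 g/ha.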

Chenopodiaceae = system: Chenopodiaceae
How it was run: as §1

Rorippa indica = system: Rorippa indica
How it was run: as §1

Veronica polita = system: Veronica polita
How it was run: as §1

Cc1ccc(-c2nnc(C(F)(F)F)cc2OC(=S)OCCC(C)C)c([N+](=O)[O-])c1 [Compound 1-159]
10: weed control effect, Amaranthus retroflexus (activity level) (Amaranthus retroflexus; Dose 3000 g/ha) | weed control effect, Chenopodiaceae (activity level) (Chenopodiaceae; Dose 3000 g/ha) | weed control effect, Rorippa indica (activity level) (Rorippa indica; Dose 3000 g/ha) | weed control effect, Veronica polita (activity level) (Veronica polita; Dose 3000 g/ha)

Cc1nc2cc(-c3nnc(C(F)(F)F)cc3O)ccc2o1 [Compound 597]
10: weed control effect (activity level), Amaranthus retroflexus (Amaranthus retroflexus; Dose 3000 g/ha) | weed control effect (activity level), Chenopodiaceae (Chenopodiaceae; Dose 3000 g/ha) | weed control effect (activity level), Rorippa indica (Rorippa indica; Dose 3000 g/ha) | weed control effect (activity level), Veronica polita (Veronica polita; Dose 3000 g/ha)

C=Cc1cc(-c2nnc(C(F)(F)F)cc2O)c(F)cc1Cl [Compound 166]
10: weed control effect (activity level), Amaranthus retroflexus (Amaranthus retroflexus; dose 2000 g/ha) | weed control effect (activity level), Chenopodiaceae (Chenopodiaceae; dose 2000 g/ha) | weed control effect (activity level), Rorippa indica (Rorippa indica; dose 2000 g/ha) | weed control effect (activity level), Veronica polita (Veronica polita; dose 2000 g/ha)

Oc1cc(C(F)(F)F)nnc1-c1cc2ccccc2s1 [Compound 594]
10: weed control effect (activity level), Amaranthus retroflexus (Amaranthus retroflexus; Dose 3000 g/ha) | weed control effect (activity level), Chenopodiaceae (Chenopodiaceae; Dose 3000 g/ha) | weed control effect (activity level), Rorippa indica (Rorippa indica; Dose 3000 g/ha) | weed control effect (activity level), Veronica polita (Veronica polita; Dose 3000 g/ha)

Oc1cc(C(F)(F)F)nnc1-c1ccc2cnccc2c1 [Compound 634]
10: weed control effect (activity level), Amaranthus retroflexus (Amaranthus retroflexus; Dose 3000 g/ha) | weed control effect (activity level), Chenopodiaceae (Chenopodiaceae; Dose 3000 g/ha) | weed control effect (activity level), Rorippa indica (Rorippa indica; Dose 3000 g/ha) | weed control effect (activity level), Veronica polita (Veronica polita; Dose 3000 g/ha)

Cc1ccc(-c2nnc(C(F)(F)F)cc2O)o1 [Compound 414]
10: weed control effect (activity level), Amaranthus retroflexus (Amaranthus retroflexus; Dose 3000 g/ha) | weed control effect (activity level), Chenopodiaceae (Chenopodiaceae; Dose 3000 g/ha) | weed control effect (activity level), Rorippa indica (Rorippa indica; Dose 3000 g/ha) | weed control effect (activity level), Veronica polita (Veronica polita; Dose 3000 g/ha)

O=C(Oc1cc(C(F)(F)F)nnc1-c1ccc(C(F)(F)F)cc1)c1cccc(OC(F)(F)F)c1 [Compound 1-88]
10: weed control effect, Amaranthus retroflexus (activity level) (Amaranthus retroflexus; Dose 3000 g/ha) | weed control effect, Chenopodiaceae (activity level) (Chenopodiaceae; Dose 3000 g/ha) | weed control effect, Rorippa indica (activity level) (Rorippa indica; Dose 3000 g/ha) | weed control effect, Veronica polita (activity level) (Veronica polita; Dose 3000 g/ha)

CCC(=O)Oc1cc(C(F)(F)F)nnc1-c1ccc(F)cc1 [Compound 1-4]
10: weed control effect, Amaranthus retroflexus (activity level) (Amaranthus retroflexus; Dose 3000 g/ha) | weed control effect, Chenopodiaceae (activity level) (Chenopodiaceae; Dose 3000 g/ha) | weed control effect, Rorippa indica (activity level) (Rorippa indica; Dose 3000 g/ha) | weed control effect, Veronica polita (activity level) (Veronica polita; Dose 3000 g/ha)

Oc1cc(C(F)(F)F)nnc1-c1cccnc1C(F)(F)F [Compound 976]
10: weed control effect (activity level), Amaranthus retroflexus (Amaranthus retroflexus; Dose 3000 g/ha) | weed control effect (activity level), Chenopodiaceae (Chenopodiaceae; Dose 3000 g/ha) | weed control effect (activity level), Rorippa indica (Rorippa indica; Dose 3000 g/ha) | weed control effect (activity level), Veronica polita (Veronica polita; Dose 3000 g/ha)

Oc1cc(C(F)(F)F)nnc1-c1ccc(C(F)(F)F)cc1 [Compound 746]
10: weed control effect (activity level), Amaranthus retroflexus (Amaranthus retroflexus; Dose 3000 g/ha) | weed control effect (activity level), Chenopodiaceae (Chenopodiaceae; Dose 3000 g/ha) | weed control effect (activity level), Rorippa indica (Rorippa indica; Dose 3000 g/ha) | weed control effect (activity level), Veronica polita (Veronica polita; Dose 3000 g/ha)

CCCCCCOC(=S)Oc1cc(C(F)(F)F)nnc1-c1ccc(Cl)c(Cl)c1Cl [Compound 1-160]
10: weed control effect, Amaranthus retroflexus (activity level) (Amaranthus retroflexus; Dose 3000 g/ha) | weed control effect, Chenopodiaceae (activity level) (Chenopodiaceae; Dose 3000 g/ha) | weed control effect, Rorippa indica (activity level) (Rorippa indica; Dose 3000 g/ha) | weed control effect, Veronica polita (activity level) (Veronica polita; Dose 3000 g/ha)

Oc1cc(C(F)(F)F)nnc1-c1cc(F)c(F)c(F)c1 [Compound 53]
10: weed control effect (activity level), Amaranthus retroflexus (Amaranthus retroflexus; dose 1000 g/ha) | weed control effect (activity level), Chenopodiaceae (Chenopodiaceae; dose 1000 g/ha) | weed control effect (activity level), Rorippa indica (Rorippa indica; dose 1000 g/ha) | weed control effect (activity level), Veronica polita (Veronica polita; dose 1000 g/ha)

Cc1ccc(-c2nnc(C(F)(F)F)cc2OC(=O)OCC(C)(C)C)c([N+](=O)[O-])c1 [Compound 1-33]
10: weed control effect, Amaranthus retroflexus (activity level) (Amaranthus retroflexus; Dose 3000 g/ha) | weed control effect, Chenopodiaceae (activity level) (Chenopodiaceae; Dose 3000 g/ha) | weed control effect, Rorippa indica (activity level) (Rorippa indica; Dose 3000 g/ha) | weed control effect, Veronica polita (activity level) (Veronica polita; Dose 3000 g/ha)

CSCCC(=O)Oc1cc(C(F)(F)F)nnc1-c1ccc(F)c(F)c1 [Compound 1-77]
10: weed control effect, Amaranthus retroflexus (activity level) (Amaranthus retroflexus; Dose 3000 g/ha) | weed control effect, Chenopodiaceae (activity level) (Chenopodiaceae; Dose 3000 g/ha) | weed control effect, Rorippa indica (activity level) (Rorippa indica; Dose 3000 g/ha) | weed control effect, Veronica polita (activity level) (Veronica polita; Dose 3000 g/ha)

Oc1cc(C(F)(F)F)nnc1-c1ccc(I)nc1 [Compound 970]
10: weed control effect (activity level), Amaranthus retroflexus (Amaranthus retroflexus; Dose 3000 g/ha) | weed control effect (activity level), Chenopodiaceae (Chenopodiaceae; Dose 3000 g/ha) | weed control effect (activity level), Rorippa indica (Rorippa indica; Dose 3000 g/ha) | weed control effect (activity level), Veronica polita (Veronica polita; Dose 3000 g/ha)

Cn1ncc(C2CC2)c1-c1nnc(C(F)(F)F)cc1O [Compound 810]
10: weed control effect (activity level), Amaranthus retroflexus (Amaranthus retroflexus; Dose 3000 g/ha) | weed control effect (activity level), Chenopodiaceae (Chenopodiaceae; Dose 3000 g/ha) | weed control effect (activity level), Rorippa indica (Rorippa indica; Dose 3000 g/ha) | weed control effect (activity level), Veronica polita (Veronica polita; Dose 3000 g/ha)

C#Cc1ccc(-c2nnc(C(F)(F)F)cc2O)c(OC(C)=O)c1 [Compound 173]
10: weed control effect (activity level), Amaranthus retroflexus (Amaranthus retroflexus; dose 2000 g/ha) | weed control effect (activity level), Chenopodiaceae (Chenopodiaceae; dose 2000 g/ha) | weed control effect (activity level), Rorippa indica (Rorippa indica; dose 2000 g/ha) | weed control effect (activity level), Veronica polita (Veronica polita; dose 2000 g/ha)

COCC(=O)Oc1cc(C(F)(F)F)nnc1-c1ccc(F)c(F)c1 [Compound 1-71]
10: weed control effect, Amaranthus retroflexus (activity level) (Amaranthus retroflexus; Dose 3000 g/ha) | weed control effect, Chenopodiaceae (activity level) (Chenopodiaceae; Dose 3000 g/ha) | weed control effect, Rorippa indica (activity level) (Rorippa indica; Dose 3000 g/ha) | weed control effect, Veronica polita (activity level) (Veronica polita; Dose 3000 g/ha)
